Experimental data from paper PMC9598926, “Design and Synthesis of (Z)-5-(Substituted benzylidene)-3-cyclohexyl-2-thioxothiazolidin-4-one Analogues as Anti-Tyrosinase and Antioxidant Compounds: In Vitro and In Silico Insights” (Antioxidants, 2022).

Experiments:
[1] = Peroxynitrite (ONOO−) scavenging activity assay (DHR 123, SIN-1); conditions: SIN–1 10 µM; 5, 10, 20 µM
Description: 2.14. Peroxynitrite (ONOO^−) Scavenging Activity Assay
Peroxynitrite-scavenging activities were determined as described by Kooy et al. with modification. This method monitors the fluorescence of rhodamine 123, which is formed rapidly when non-fluorescent DHR 123 (dihydrorhodamine 123) (Molecular Probes, Eugene, OR, USA) in the presence of peroxynitrite. The rhodamine buffer solution (pH 7.4) included of 50 mM sodium phosphate, 90 mM sodium chloride, 5 mM potassium chloride, and 100 µM DTPA. The final concentration of DHR 123 was 5 µM. In this assay, the buffer solution was prepared prior to use and then stood on ice. Test compounds (10 µL, final concentrations: 5, 10, and 20 µM) dissolved in DMSO and added to 10 µL SIN-1 (10 µM) and 180 µL rhodamine buffer solution in the wells of a black 96-well plate. Fluorescence intensities of oxidized DHR 123 were measured using a fluorescence plate reader (Berthold Advances GmbH & Co., Bad Wildbad, Germany) with an excitation and emission wavelengths of 485 and 535 nm, respectively. Peroxynitrite scavenging activity was calculated after subtracting background fluorescence from final fluorescence intensity. Results are expressed as means ± standard deviation (SD), and L-penicillamine was used as a positive control.
Several RNS (reactive nitrogen species), including peroxynitrite (ONOO^–) and nitric oxide, are known to be involved in the induction of the melanogenesis. Therefore, we investigated the effects of analogs 1–8 on peroxynitrite scavenging activity using DHR123 (dihydrorhodamine) as a ROS indicator and SIN–1 as an RNS generator. Peroxynitrite generated by SIN–1 oxidizes DHR123 to rhodamine 123, a fluorescent compound. Thus, the effects of analogs on peroxynitrite scavenging ability were determined by measuring rhodamine 123 fluorescence.

[2] = DPPH radical scavenging activity assay; conditions: test sample 500 µM, DPPH 0.18 mM, 30 min in the dark
Description: 2.11. DPPH Radical Scavenging Activity Assay
The DPPH radical scavenging activities of analogs 1–8 were investigated as previously described with minor modification. L-Ascorbic acid was used as a positive control. In brief, 20 µL of analogs (5 mM) in DMSO or 5 mM L-ascorbic acid in distilled water were mixed with 180 µL of 0.2 mM DPPH in methanol in a 96-well microplate. After the microplate had been stored in the dark for 30 min, optical densities (ODs) were measured at 517 nm using a microplate reader (VersaMax®, Molecular Devices, Sunnyvale, CA, USA). DPPH radical scavenging activities were determined using the following formula:DPPH radical scavenging activity (%) = 100 × (Ac − As)/Ac(1) where Ac indicates the optical density of the non-treated control and As indicates the optical density of test sample. Experiments were conducted independently 3 times.
There is a possibility that compounds with antioxidant properties inhibit the oxidations of tyrosinase substrates, such as L-tyrosine and L-dopa, without interacting with the tyrosinase. Melanin production requires many oxidative processes, including the conversion of L-tyrosine to dopaquinone via L-dopa. Therefore, compounds with antioxidant activity have the potential to inhibit melanogenesis. DPPH (2,2-diphenyl-1-picrylhydrazyl) contains a free radical, and DPPH assays are commonly used to assess antioxidant activity. In this experiment, L-ascorbic acid (an antioxidant) was used as a positive control. The assay was conducted at a test sample and L-ascorbic acid concentration of 500 µM and a DPPH concentration of 0.18 mM. After standing test sample/DPPH mixtures for 30 min in the dark, optical densities were measured to evaluate radical scavenging activities.

[3] = test system: B16F10 murine melanoma cells; experiment: B16F10 cell viability (EZ-Cytox assay); assay type: cell-based
Description: 2.8. Viabilities of B16F10 Murine Melanoma Cells Treated with Analogues 2 or 3
The cytotoxic effects of analogs 2 and 3 were examined using B16F10 murine melanoma cells, as previously described. Cell viabilities were determined using the EZ-Cytox cell viability assay kit (Daeil Lab Service Co. Ltd., Seoul, Korea). Briefly, B16F10 cells (density 1 × 10^4 cells/well) were added to the wells of a 96-well microplate and cultured in a humidified 5% CO2 atmosphere at 37 °C for 24 h. Cells were then exposed to analogs 2 or 3 at 0, 1, 2, 5, 10, or 20 µM and incubated in a humidified 5% CO2 atmosphere for 24, 48, or 72 h at 37 °C. At these time points, cells were exposed to 10 µL of EZ-Cytox solution and incubated for 2 h at 37 °C. Optical densities of wells were then measured at 450 nm using a microplate reader (VersaMax®, Molecular Devices, Sunnyvale, CA, USA) to assess cell viability. Experiments were conducted independently 3 times.
Since analogs 2 and 3 had potent inhibitory effects on mushroom tyrosinase, they were subjected to B16F10 murine melanoma cytotoxicity assays. Initially, the cytotoxicities of 2 and 3 were investigated at concentrations of 0, 1, 2, 5, 10, and 20 µM using the EZ-Cytox cell viability assay (EZ-3000; DoGenBio, Seoul, Korea). Cell viability was measured after treatment for 24, 48, or 72 h (Figure 6).

B16F10 cells = experiment: Melanin content analysis in α–MSH plus IBMX stimulated B16F10 cells; assay type: cell-based, murine
Description: 2.10. Melanin Content Analysis Melanin content assays were performed to determine the effects of analog 3 on cellular melanin formation, as previously described with minor modification. […] Briefly, cultured B16F10 cells were seeded in 6-well culture plates at 1 × 10^4 cells/well and incubated for 12 h under culture conditions to allow them to adhere to well bottoms. […] Cells were then washed twice with PBS and detached from wells by incubation with Trypsin/EDTA. After centrifugation, detached cell pellets were dissolved in 1N–NaOH solution (100 µL), incubated for 1 h at 60 °C, and mixed to solubilize melanin released by cells. The ability of analog 3 to inhibit melanin production was determined by measuring well optical densities (ODs) at 405 nm using a microplate reader (VersaMax®, Molecular Devices, Sunnyvale, CA, USA). Melanin contents were calculated by dividing the ODs of samples by the control OD. Experiments were conducted independently 3 times. […] Thus, B16F10 cells were treated with analog 3 (0, 5, 10, or 20 µM) for 1 h and then stimulated with α–MSH (1 µM) plus IBMX (200 µM) for 72 h. Melanin contents were assessed by measuring optical densities at 405 nm.

SMILES | peroxynitrite scavenging compared with penicillamine [1] | DPPH radical scavenging activity [2] [%] | cytotoxicity in B16F10 cells, 24 h ([3]; 1, 2, 5, 10, 20 µM, 24 h) | cytotoxicity in B16F10 cells, 48 h and 72 h ([3]; 1, 2, 5, 10, 20 µM, 48 h and 72 h) | effect on α–MSH/IBMX-induced melanin contents at 5 µM (B16F10 cells; 5 µM, compared with kojic acid 20 µM) | effect on α–MSH/IBMX-induced melanin contents at 20 µM (B16F10 cells; 20 µM, 72 h) | effect on α–MSH/IBMX-induced melanin content increases (B16F10 cells; 5, 10, 20 µM, 72 h) | cytotoxicity in B16F10 cells, any concentration or time ([3]; 1, 2, 5, 10, 20 µM, 24, 48, 72 h)
O=C1/C(=C/c2ccc(O)c(O)c2)SC(=S)N1C1CCCCC1 [Analog 2, (Z)-3-Cyclohexyl-5-(3,4-dihydroxybenzylidene)-2-thioxothiazolidin-4-one] | much more potently than penicillamine | 92 | cytotoxic at 20 µM | cytotoxic at all concentrations | – | – | – | –
O=C1/C(=C/c2ccc(O)cc2O)SC(=S)N1C1CCCCC1 [Analog 3, (Z)-3-Cyclohexyl-5-(2,4-dihydroxybenzylidene)-2-thioxothiazolidin-4-one] | much more potently than penicillamine | 73 | – | – | greater effect than kojic acid at 20 µM | to the non-treated control level | significantly and dose-dependently reduced | not cytotoxic
